Here are results for 4 compounds from US9833455B2, “Preparation and methods of use for ortho-aryl 5-membered heteroaryl-carboxamide containing multi-targeted kinase inhibitors” (Spacefill Enterprises LLC, priority 2011, dated 2017).

One assay deals with T1, CDK3 (Homo sapiens, UniProt Q00526).
T1 construct: literature Ambit Biosciences
The following applies: 1 μM, duplicate, without preincubation; cited from earlier work.

The next assay concerns the target T2, ULK2 (Homo sapiens, UniProt Q8IYT8).
T2 construct: literature Ambit Biosciences
Particulars: 1 μM, duplicate, without preincubation; cited from earlier work.

The target in the next assay is T3, BMPR2 (Homo sapiens, UniProt Q13873).
T3 construct: literature Ambit Biosciences
The following applies: 1 μM, duplicate, without preincubation; cited from earlier work.

For another assay, the target named is T4, IKK-alpha (Homo sapiens, UniProt O15111).
T4 construct: literature Ambit Biosciences
The following applies: 1 μM, duplicate, without preincubation; cited from earlier work.

The next assay addresses T5, BRAF (V599E) (Homo sapiens, UniProt P15056, V600E).
T5 construct: purchased Reaction Biology Inc (contract assay)
Put plainly: Reaction Biology P33 radiolabeled kinase assay, IC50 and time dependence. In kind it is biochemical. The following applies: for IC50: ATP 10 uM, read-out: Compound IC50* BRAF (V599E). The protocol:
(§1) “Inhibiting kinase activity” means to decrease the production of an phosphor-peptide by a particular kinase that can be separated by analytical techniques. For example, a comprehensive platform of kinase, protease, phosphatase and epigenetic assays that utilizes cutting-edge microfluidics and informatics tools to provide accurate and rapid results. Profiling data in this application were determined using these techniques at Nanosyn Inc. IC50 data were provided by Reaction Biology Inc using a P33 radiolabeled kinase assay.
(§2) The observation of potency and isoform selectivity with time-dependency for PI3K-γ appears to be unprecedented in the literature. In addition, these activities combined with inhibition of p38-α, Raf-1, DDR and CSF-1R, would be complimentary and potentially synergistic activities for both the treatment of certain inflammation based conditions and cancers.

The next assay has as its target T6, P38a/MAPK14 (Homo sapiens, UniProt Q16539).
T6 construct: purchased Reaction Biology Inc (contract assay)
The description is as above. In kind it is biochemical. The following applies: for IC50: ATP 10 uM, read-out: Compound IC50* P38a/MAPK14. The procedure: as §1, §2

A further assay concerns the target BRAF(V600E) (Homo sapiens, UniProt P15056, V600E). Description: LanthaScreen assay, side by side IC50 comparison. The following applies: LanthaScreen assay, side by side comparison. In kind it is biochemical. The protocol:
To test both our binding mode hypothesis and to see if these structural differences could be taken exploited to impart selectivity and potency improvements, I-13, in which the lipophilic 2-trifluoromethy substituent on imidazole ring of inhibitor KIN-035, was replaced by the polar 2-methylsulfonyl substitutent. […] To address this issue, real time kinetic experiments were performed.
(Time-resolved FRET reads energy transfer from a long-lived donor to a nearby acceptor.)

Another assay has as its target T7, CSF1R (Homo sapiens, UniProt P07333).
T7 construct: literature Ambit Biosciences
The following applies: cited from earlier work.

The target of another assay is T8, EGFR(L858R) (Homo sapiens, UniProt P00533, L858R).
T8 construct: literature Ambit Biosciences
Particulars: 1 μM, duplicate, without preincubation; cited from earlier work.

In another assay the target is BLK (Homo sapiens, UniProt P51451). Description: Nanosyn kinase profiling, % inhibition. It counts as biochemical. The following applies: panel of 230 kinases. The procedure:
as §1
(§3) More modest activity for Aurora-A, FLT-1/4, KDR, KIT, PDGFRs was accompanied by better activity for B-Raf mutant and wild-type forms, Modest inhibition of MEK-1, BTK, c-Met, RET, and RON was also observed. […] Moreover, the observed inhibition of MEK-1 with 1-12 and TYK2 with I-6 represents additional activities against kinases for which no type-II inhibitors have been reported to date. […] To further evaluate the scope of inhibition, I-6 was evaluated against a larger panel of 230 kinases, Table-22.

A further assay deals with TRKC (Homo sapiens, UniProt Q16288). Description: Nanosyn kinase profiling, % inhibition. In kind it is biochemical. The following applies: panel of 230 kinases. The protocol:
as §1, §3

Another assay has as its target LCK (Homo sapiens, UniProt P06239). Put plainly: Nanosyn kinase profiling, % inhibition. Particulars: panel of 230 kinases. It counts as biochemical. The protocol: as §1, §3
In a further assay the target is PAK1 (Homo sapiens, UniProt Q13153). Description: Nanosyn kinase profiling, % inhibition. In kind it is biochemical. The following applies: panel of 230 kinases. The protocol: as §1, §3
The target of another assay is EPH-B4 (Homo sapiens, UniProt P54760). Put plainly: Nanosyn kinase profiling, % inhibition. It counts as biochemical. Particulars: panel of 230 kinases. The procedure: as §1, §3
For another assay, the target named is EPH-B1 (Homo sapiens, UniProt P54762). Put plainly: Nanosyn kinase profiling, % inhibition. In kind it is biochemical. The following applies: panel of 230 kinases. The procedure: as §1, §3
In a further assay the target is TRKA (Homo sapiens, UniProt P04629). Description: Nanosyn kinase profiling, % inhibition. In kind it is biochemical. Particulars: panel of 230 kinases. The protocol: as §1, §3
In another assay the target is ARG (Homo sapiens, UniProt P42684). Description: Nanosyn kinase profiling, % inhibition. In kind it is biochemical. The following applies: panel of 230 kinases. The protocol: as §1, §3
The target in the next assay is PRKD3 (Homo sapiens, UniProt O94806). Description: Nanosyn kinase profiling, % inhibition. It counts as biochemical. The following applies: panel of 230 kinases. The procedure:
as §1, §3

A further assay concerns the target JAK2 (Homo sapiens, UniProt O60674). Description: Nanosyn kinase profiling, % inhibition. Particulars: panel of 230 kinases. In kind it is biochemical. The protocol:
as §1, §3

The target of a further assay is EPH-A8 (Homo sapiens, UniProt P29322). Put plainly: Nanosyn kinase profiling, % inhibition. In kind it is biochemical. Particulars: panel of 230 kinases. The procedure:
as §1, §3

A further assay has as its target AXL (Homo sapiens, UniProt P30530). Put plainly: Nanosyn kinase profiling, % inhibition. The following applies: panel of 230 kinases. It counts as biochemical. The protocol: as §1, §3
Another assay has as its target HCK (Homo sapiens, UniProt P08631). Put plainly: Nanosyn kinase profiling, % inhibition. In kind it is biochemical. The following applies: panel of 230 kinases. The procedure: as §1, §3
Another assay concerns the target HIPK4 (Homo sapiens, UniProt Q8NE63). Description: Nanosyn kinase profiling, % inhibition. It counts as biochemical. Particulars: panel of 230 kinases. The procedure: as §1, §3
A further assay deals with EPH-B2 (Homo sapiens, UniProt P29323). Description: Nanosyn kinase profiling, % inhibition. In kind it is biochemical. The following applies: panel of 230 kinases. The procedure: as §1, §3
Another assay deals with MNK2 (Homo sapiens, UniProt Q9HBH9). Put plainly: Nanosyn kinase profiling, % inhibition. It counts as biochemical. Particulars: panel of 230 kinases. The procedure: as §1, §3
The next assay addresses MUSK (Homo sapiens, UniProt O15146). Put plainly: Nanosyn kinase profiling, % inhibition. It counts as biochemical. The following applies: panel of 230 kinases. The procedure: as §1, §3
For a further assay, the target named is TRKB (Homo sapiens, UniProt Q16620). Description: Nanosyn kinase profiling, % inhibition. In kind it is biochemical. The following applies: panel of 230 kinases. The protocol:
as §1, §3

The target of the next assay is YES (Homo sapiens, UniProt P07947). Description: Nanosyn kinase profiling, % inhibition. It counts as biochemical. Particulars: panel of 230 kinases. The protocol: as §1, §3
The next assay has as its target LOK (Homo sapiens, UniProt O94804). Put plainly: Nanosyn kinase profiling, % inhibition. In kind it is biochemical. Particulars: panel of 230 kinases. The procedure: as §1, §3

Where two headings read alike, the source gives them in different places. Bounds are passed on as bounds.

T6 sequence (Q16539 whole entry): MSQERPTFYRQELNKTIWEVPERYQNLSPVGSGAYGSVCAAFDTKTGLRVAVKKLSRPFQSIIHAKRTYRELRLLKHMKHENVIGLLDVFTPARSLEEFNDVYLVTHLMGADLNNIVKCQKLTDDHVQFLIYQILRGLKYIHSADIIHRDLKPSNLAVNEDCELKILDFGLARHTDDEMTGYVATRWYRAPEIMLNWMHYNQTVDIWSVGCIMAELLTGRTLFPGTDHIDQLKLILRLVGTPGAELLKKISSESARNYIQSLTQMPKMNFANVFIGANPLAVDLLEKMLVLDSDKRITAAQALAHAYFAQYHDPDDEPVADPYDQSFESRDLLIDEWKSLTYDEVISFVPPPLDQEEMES
T5 sequence (P15056 2-766 V600E): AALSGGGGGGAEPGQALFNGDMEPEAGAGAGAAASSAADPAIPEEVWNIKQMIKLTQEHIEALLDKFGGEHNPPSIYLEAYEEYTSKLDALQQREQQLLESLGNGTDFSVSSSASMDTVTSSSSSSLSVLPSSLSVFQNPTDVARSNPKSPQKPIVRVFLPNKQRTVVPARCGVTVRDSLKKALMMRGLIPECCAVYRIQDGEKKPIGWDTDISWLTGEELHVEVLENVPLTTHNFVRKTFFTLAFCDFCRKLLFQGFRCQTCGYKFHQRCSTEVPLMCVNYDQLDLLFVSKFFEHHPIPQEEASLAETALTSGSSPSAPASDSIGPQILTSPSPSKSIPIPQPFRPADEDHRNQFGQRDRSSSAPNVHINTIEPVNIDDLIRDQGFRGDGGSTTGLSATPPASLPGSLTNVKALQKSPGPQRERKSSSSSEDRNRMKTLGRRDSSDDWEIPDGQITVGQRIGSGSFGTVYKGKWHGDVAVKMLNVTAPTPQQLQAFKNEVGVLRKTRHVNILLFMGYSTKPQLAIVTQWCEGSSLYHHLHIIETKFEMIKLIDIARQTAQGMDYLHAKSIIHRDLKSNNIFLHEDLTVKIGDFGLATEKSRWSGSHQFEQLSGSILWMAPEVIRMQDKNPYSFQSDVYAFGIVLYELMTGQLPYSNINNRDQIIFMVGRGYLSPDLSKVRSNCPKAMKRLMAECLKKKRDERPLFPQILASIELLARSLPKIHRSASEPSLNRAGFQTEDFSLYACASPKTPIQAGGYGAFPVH
Chain of EPH-A8 (P29322 28-1005): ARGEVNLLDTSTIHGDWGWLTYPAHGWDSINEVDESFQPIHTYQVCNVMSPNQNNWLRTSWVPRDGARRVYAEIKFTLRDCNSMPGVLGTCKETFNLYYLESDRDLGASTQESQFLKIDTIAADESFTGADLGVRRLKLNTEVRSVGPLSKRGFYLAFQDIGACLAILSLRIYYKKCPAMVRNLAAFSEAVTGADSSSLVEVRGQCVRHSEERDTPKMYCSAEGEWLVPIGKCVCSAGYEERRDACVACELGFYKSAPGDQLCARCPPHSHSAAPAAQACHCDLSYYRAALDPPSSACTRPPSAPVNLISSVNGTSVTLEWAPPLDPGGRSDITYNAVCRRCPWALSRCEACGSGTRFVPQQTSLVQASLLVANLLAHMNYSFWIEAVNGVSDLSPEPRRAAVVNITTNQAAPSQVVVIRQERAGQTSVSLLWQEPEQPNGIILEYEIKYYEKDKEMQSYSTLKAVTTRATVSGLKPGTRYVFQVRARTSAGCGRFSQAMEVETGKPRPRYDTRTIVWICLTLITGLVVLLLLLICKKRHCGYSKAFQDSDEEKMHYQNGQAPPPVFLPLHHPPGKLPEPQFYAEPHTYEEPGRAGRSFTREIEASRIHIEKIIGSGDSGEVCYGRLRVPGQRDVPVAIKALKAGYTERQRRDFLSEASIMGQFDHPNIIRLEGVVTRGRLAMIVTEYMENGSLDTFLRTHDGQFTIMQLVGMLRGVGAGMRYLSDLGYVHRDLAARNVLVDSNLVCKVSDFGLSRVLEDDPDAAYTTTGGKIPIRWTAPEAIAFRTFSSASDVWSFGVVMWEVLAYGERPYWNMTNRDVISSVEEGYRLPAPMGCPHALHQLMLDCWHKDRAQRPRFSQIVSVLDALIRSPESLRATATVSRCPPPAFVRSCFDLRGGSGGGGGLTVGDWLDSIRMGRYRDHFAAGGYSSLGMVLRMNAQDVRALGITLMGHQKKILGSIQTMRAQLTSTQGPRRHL
T1 sequence (Q00526 whole entry): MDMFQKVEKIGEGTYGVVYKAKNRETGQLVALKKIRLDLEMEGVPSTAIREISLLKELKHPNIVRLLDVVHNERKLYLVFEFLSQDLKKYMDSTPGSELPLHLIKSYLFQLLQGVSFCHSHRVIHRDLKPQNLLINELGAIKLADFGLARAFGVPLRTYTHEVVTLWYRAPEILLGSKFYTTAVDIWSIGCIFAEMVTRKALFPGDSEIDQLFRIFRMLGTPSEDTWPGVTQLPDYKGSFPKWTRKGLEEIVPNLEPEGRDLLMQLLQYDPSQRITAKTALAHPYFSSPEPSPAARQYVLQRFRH
Chain of AXL (P30530 26-894): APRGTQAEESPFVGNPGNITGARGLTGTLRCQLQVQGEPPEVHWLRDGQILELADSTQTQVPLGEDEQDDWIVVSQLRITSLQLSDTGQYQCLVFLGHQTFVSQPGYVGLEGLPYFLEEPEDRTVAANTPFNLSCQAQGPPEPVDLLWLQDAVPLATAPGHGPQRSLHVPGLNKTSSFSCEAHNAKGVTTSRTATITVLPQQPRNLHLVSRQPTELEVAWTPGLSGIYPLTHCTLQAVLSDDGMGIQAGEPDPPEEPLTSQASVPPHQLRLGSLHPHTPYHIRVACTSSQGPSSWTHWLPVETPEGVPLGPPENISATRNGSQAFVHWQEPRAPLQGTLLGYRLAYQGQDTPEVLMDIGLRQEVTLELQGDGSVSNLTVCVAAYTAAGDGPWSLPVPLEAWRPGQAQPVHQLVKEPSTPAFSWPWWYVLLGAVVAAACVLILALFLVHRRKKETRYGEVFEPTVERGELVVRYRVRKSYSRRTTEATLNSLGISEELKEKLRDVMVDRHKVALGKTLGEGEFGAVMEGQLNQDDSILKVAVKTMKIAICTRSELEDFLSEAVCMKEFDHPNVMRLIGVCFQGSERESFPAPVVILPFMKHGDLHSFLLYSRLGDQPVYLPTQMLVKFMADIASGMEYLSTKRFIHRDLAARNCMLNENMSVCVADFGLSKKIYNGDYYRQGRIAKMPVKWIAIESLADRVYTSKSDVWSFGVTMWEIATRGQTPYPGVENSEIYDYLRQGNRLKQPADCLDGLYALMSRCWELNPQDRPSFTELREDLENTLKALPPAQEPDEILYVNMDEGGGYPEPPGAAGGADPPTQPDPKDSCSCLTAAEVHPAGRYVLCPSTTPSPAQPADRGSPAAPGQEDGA
Chain of TRKB (Q16620 32-822): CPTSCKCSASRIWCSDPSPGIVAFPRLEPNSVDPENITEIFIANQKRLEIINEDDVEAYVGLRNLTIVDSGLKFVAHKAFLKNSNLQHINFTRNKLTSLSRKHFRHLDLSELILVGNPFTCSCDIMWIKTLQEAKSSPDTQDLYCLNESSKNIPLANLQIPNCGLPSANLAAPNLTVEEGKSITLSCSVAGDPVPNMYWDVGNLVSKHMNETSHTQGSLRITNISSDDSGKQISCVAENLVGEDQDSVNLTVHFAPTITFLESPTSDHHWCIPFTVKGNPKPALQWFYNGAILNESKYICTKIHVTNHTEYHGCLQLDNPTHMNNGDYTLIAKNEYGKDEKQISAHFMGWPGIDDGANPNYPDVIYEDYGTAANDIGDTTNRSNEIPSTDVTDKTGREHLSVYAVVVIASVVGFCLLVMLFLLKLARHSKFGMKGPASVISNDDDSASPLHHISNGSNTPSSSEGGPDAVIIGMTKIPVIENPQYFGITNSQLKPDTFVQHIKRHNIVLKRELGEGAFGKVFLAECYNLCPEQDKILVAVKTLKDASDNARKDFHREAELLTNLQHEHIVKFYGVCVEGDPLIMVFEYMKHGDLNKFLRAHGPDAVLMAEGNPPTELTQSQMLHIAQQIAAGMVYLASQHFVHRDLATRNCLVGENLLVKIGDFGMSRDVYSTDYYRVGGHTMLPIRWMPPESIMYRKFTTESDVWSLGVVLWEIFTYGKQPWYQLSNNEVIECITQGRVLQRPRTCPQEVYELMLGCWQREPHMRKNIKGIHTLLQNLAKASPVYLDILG
Chain of HIPK4 (Q8NE63 whole entry): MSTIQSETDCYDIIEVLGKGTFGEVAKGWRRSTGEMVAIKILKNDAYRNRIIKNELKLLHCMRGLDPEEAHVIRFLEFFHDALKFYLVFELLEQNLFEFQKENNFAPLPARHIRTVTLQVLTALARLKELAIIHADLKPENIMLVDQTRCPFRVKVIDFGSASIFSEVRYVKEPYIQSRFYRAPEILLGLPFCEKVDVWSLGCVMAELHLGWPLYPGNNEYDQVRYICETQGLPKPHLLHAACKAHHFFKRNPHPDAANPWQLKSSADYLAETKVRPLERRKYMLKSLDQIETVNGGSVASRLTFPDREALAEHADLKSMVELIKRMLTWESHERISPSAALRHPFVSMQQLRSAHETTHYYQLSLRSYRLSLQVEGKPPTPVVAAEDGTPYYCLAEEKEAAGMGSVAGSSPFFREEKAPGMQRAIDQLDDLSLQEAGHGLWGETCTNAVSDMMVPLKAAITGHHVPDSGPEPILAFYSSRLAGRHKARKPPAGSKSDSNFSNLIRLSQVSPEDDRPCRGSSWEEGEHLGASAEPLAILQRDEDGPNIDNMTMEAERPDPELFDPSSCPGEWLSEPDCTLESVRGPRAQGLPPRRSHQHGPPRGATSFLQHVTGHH

For the compound `Cc1ccc(-c2nc(C(F)(F)F)[nH]c2C(=O)Nc2ccc(C)c(Nc3ccc4ncn(C)c(=O)c4c3)c2)cc1F` [KIN-038], the “inhibition of CDK3” value at CDK3 is “X (X > 25% @ 1 μM)”. For the same compound, the “inhibition of ULK2” value at ULK2 was “X (X > 25% @ 1 μM)”. At BMPR2, the “inhibition of BMPR2” value is on record as “X (X > 25% @ 1 μM)”. Besides, on IKK-alpha, the “inhibition of IKK-alpha” value is listed as “X (X > 25% @ 1 μM)”.
For `Cc1ccc(NC(=O)c2nc(S(C)(=O)=O)[nH]c2-c2ccc(F)cc2)cc1Nc1nccc(-c2cccnc2)n1` [Inhibitor I-14, 3-(4-(pyridin-3-yl)-pyrimidinyl-2-yl)amino-4-methyl-analine, 5-(4-Fluorophenyl)-2-(methylsulfonyl)-1H-imidazole-4-carboxamide], the “Time Dependence Observed? BRAF (V599E)” value on BRAF (V599E) (15 vs 60 Min preincubation) was “No”. Also, the IC50 on BRAF (V599E) (preincubation 15 Min) is 194 nM; at BRAF (V599E) (preincubation 60 Min), 194 nM; on P38a/MAPK14 (preincubation 15 Min), 150 nM; on P38a/MAPK14 (preincubation 60 Min) it was 150 nM. Moreover, the “Time Dependence Observed? P38a/MAPK14” value at P38a/MAPK14 (15 vs 60 Min preincubation) was “No”.
Turning to `Cc1ccc(NC(=O)c2[nH]c(C(F)(F)F)nc2-c2ccc(F)cc2)cc1Nc1ccc2ncn(C)c(=O)c2c1` [KIN-035], the IC50 against BRAF(V600E) came out at 67 nM. Moreover, the “improved potency for CSF1R, KIN-032 vs KIN-035 (4-fluoro-substituent)” value on CSF1R is recorded as 70 fold. Moreover, the “inhibition of EGFR(L858R)” value on EGFR(L858R) was “X (X > 25% @ 1 μM)”.
Consider `CNC(=O)c1cc(Oc2ccc(NC(=O)c3nc(C(F)(F)F)[nH]c3-c3ccc(F)cc3)cc2)ccn1` [Inhibitor I-6, 4-(4-{[5-(4-Fluoro-phenyl)-2-trifluoromethyl-3H-imidazole-4-carbonyl]-amino}-phenoxy)-pyridine-2-carboxylic acid methylamide], for which the inhibition at 5 µM at BLK, against TRKC, on LCK, against PAK1, against EPH-B4 and at EPH-B1 was at least 50% each time. Further, the inhibition at 5 µM on TRKA, on ARG, against PRKD3, at JAK2, at EPH-A8 and on AXL was at least 50% throughout. The inhibition at 5 µM at HCK, against HIPK4, against EPH-B2, against MNK2, on MUSK and at TRKB was at least 50% in each case. For the same compound, the inhibition at 5 µM at YES and on LOK was at least 50% throughout.

In general, inhibition refers to how much of the control response was suppressed.
